Consider six molecules from patent publication US6812248B2, “Prevention and treatment of degenerative diseases by glutathione and phase II detoxification enzymes” (John Hopkins University School of Medicine, priority 2000, dated 2004).

Assay [1] concerns motor neurons. The note with it: earlier use of the culture system as preclinical screen; cited from earlier work.
For assay [2], the system named is motor neurons. The note with it: spinal cord explant; sulforaphane 0.5, 5, 10 μM for 3 weeks; FIG. 1. The method, then: The general experimental procedure of THA-induced cytotoxicity was previously described (Ho T et al., Experimental Neurology, 161, 664-675, 2000), the contents of which are incorporated herein by reference. Rodent spinal cord tissue slices were treated with THA and/or sulforaphane. Sulforaphane was administered at concentrations at 0, 0.5 μM, 5 μM and 10 μM for 3 weeks, changing medium every three days. At the end of the experiment, each tissue slice was fixed and stained, and remaining neurons were counted.

A further assay has as its system glutathione (GSH). The settings on record: 1, 5 or 10 μM for 12 h, 24 h or 48 h; no THA; FIG. 2. The method, then: Rat spinal cord slices were similarly prepared and cultured as in the above example but without THA treatment. The tissues were cultured for one or two weeks and then incubated with 1 μM, 5, μM, or 10 μM, of sulphoraphane for 12 h, 24 h or 48 h. The tissue slices were then harvested and sonicated and assayed for total GSH content (Richie J P et al., Clinical Chemistry, 42, 64-70, 1996, the contents of which are incorporated herein by reference).

For assay [3], the system named is glutathione transferase (GST). On the procedure: (§1) Mouse spinal cord cultures were prepared and cultured according to Rothstein, J D and Kuncl, R W. J. Neural Chem. 65:643-651 (1995). Cultures were treated with sulforaphane for 24 hours at concentrations of 0,1 μm, 5 μm, 10 μm and 20 μm.
(§2) Mouse spinal cord cultures were prepared and cultured as above. Cultures were treated with sulforaphane for 2 weeks, twice a week, at concentrations of 1 μm, 5 μm and 10 μm.

The next assay deals with quinone reductase (QR). The method, then: as §1, §2
Another assay has as its system SOD-G93 mice. The settings on record: oral daily gavage from weaning; expected result.
A further assay concerns brain glutathione. In words: Blood-brain barrier permeability / whole brain GSH levels after daily oral gavage. The settings on record: one week, whole brain homogenate, FIG. 5.
[4] abbreviates: treated 2 weeks, twice a week, at 1, 5, 10 μm, FIG. 4.
[5] abbreviates: treated 24 hours at 1, 5, 10, 20 μm, FIG. 3.

Where two headings read alike, the source gives them in different places. Where only a bound is given, the exact number is not on record here.

Text for SOD-G93 mice: Method: Transgenic animals will be divided into four groups of 10 animals per group. […] The third group will receive N-acetylcysteine alone, and a fourth group will receive vehicle control (CMC). […] Animals will begin treatment at weaning, and continue oral daily gavage of the drugs. Onset of disease will be monitored by alteration on rotorod performance. Animals will be studied twice weekly starting at 1 month of age. A surrogate survival measure will be determined by the ability of the animals to right themselves after being placed on the cage on their backs. If they are unable to right themselves after 30 seconds, they will be considered dead. The survival and rotorod performance of each group of the animal will be compared.

For the molecule `NCC1(CC(=O)O)CCCCC1` [gabapentin, reference compound], in the assay with motor neurons [1], the “Protection against chronic motor neuron degeneration” value (shortened to “Protection”) is recorded as “protective”.

Regarding `Nc1nc2ccc(OC(F)(F)F)cc2s1` [riluzole, reference compound], in the assay with motor neurons [1], the “Protection” value was “protective”.

As for `C[S+]([O-])CCCCN=C=S` (stereo not shown) [sulforaphane], the “Prevention of THA-induced motor neuron death” value with motor neurons [2] is given as “significantly prevented THA-induced motor neuron death”. In addition, the “Rise of GSH level in treated spinal cord tissue” value in the assay on glutathione (GSH) is not above 160%. The “Induction of GST activity” value in assay [3] (setting [4]) and in assay [3] (setting [5]) was “induced” in each case. The “Induction of QR activity” value in the assay on quinone reductase (QR) (setting [4]) and with quinone reductase (QR) (setting [5]) was “induced” throughout. Further, in the assay on SOD-G93 mice, the “Survival of the animals compared to control” value was “will improve the survival”. The “Brain GSH levels” value in the assay with brain glutathione is reported as “elevate GSH levels in the brain”.

For “insulin growth factor (IGF-1): insulin growth factor, potential neuroprotective agent”, the “Protection” value in the assay on motor neurons [1] was “protective”.

B1: ciliary neurotrophic factor (CNTF): ciliary neurotrophic factor (protein, UniProt P26441 1-200, looked up)
Ciliary neurotrophic factor: MAFTEHSPLTPHRRDLCSRSIWLARKIRSDLTALTESYVKHQGLNKNINLDSADGMPVASTDQWSELTEAERLQENLQAYRTFHVLLARLLEDQQVHFTPTEGDFHQAIHTLLLQVAAFAYQIEELMILLEYKIPRNEADGMPINVGDGGLFEKKLWGLKVLQELSQWTVRSIHDLRFISSHQTGIPARGSHYIANNKKM
Consider B1, for which, in the assay on motor neurons [1], the “Protection” value is recorded as “failed to protect”.

B2: brain-derived neurotrophic factor (BDNF): brain-derived neurotrophic factor (protein, UniProt P23560 129-247, looked up)
Neurotrophic factor BDNF: HSDPARRGELSVCDSISEWVTAADKKTAVDMSGGTVTVLEKVPVSKGQLKQYFYETKCNPMGYTKEGCRGIDKRHWNSQCRTTQSYVRALTMDSKKRIGWRFIRIDTSCVCTLTIKRGR
modifications: Neurotrophic factor BDNF
Take B2: the “Protection” value in the assay with motor neurons [1] is given as “failed to protect”.
